15 compounds from PubChem BioAssay (NCI) can be followed below.

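Where inhibition never reached the appropriate level, the endpoint shown equals the highest concentration tested. Otherwise, values were interpolated linearly from a five-concentration, 48-hour dose response in 96-well plates. GI50 is the concentration that inhibits growth by half. TGI: total growth inhibition.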

In one test the test system is HCT-15 colon. Description: growth of human tumour cells (NCI), 48 h.
In the case of `CC(=O)c1cccc(N(/C=C/C(=O)C(F)(F)F)CC(=O)c2ccc(Cl)cc2)c1`, the GI50 is over 100 µM and the TGI is over 100 µM.

As to `COc1ccc(Cl)cc1Nc1nc(C(F)(F)F)ccc1C(=O)NN`, the GI50 was 1.2 µM and the TGI was over 100 µM.

For the compound `C#C[C@]1(O)CC[C@H]2[C@@H]3CC=C4c5nc(Nc6ccccn6)sc5CC[C@]4(C)[C@H]3CC[C@@]21C`, the GI50 was 1.27 µM and the TGI was determined as 2.94 µM.

With `CCN(CC)c1ccc(NC(=S)NN(C)C)cc1`, the TGI is over 10 µM.

In the case of `Nc1cc(N)c2nc(-c3ccccc3)c(Oc3ccc(F)cc3)nc2c1`, the GI50 was 36 µM and the TGI is over 100 µM.

On to `CC(O)CNC1=CC(=O)C(=O)c2ccccc21` (stereo not given), for which the TGI amounted to 33.6 µM.

For `CC1(C)N=C(N)N=C(N)N1c1ccc(CCc2ccccc2)c(Cl)c1`, the GI50 was 2.55 µM and the TGI was over 100 µM.

As to `CC1=C(C(=O)NC2CCCCC2)CC(C(=O)NC2CCCCC2)=C(C)N1`, the TGI was over 100 µM.

Consider `Cc1ccc(C(=O)Cc2nc3c([nH]c2=O)c(C)nn3-c2ccccc2)c(C)c1`, for which the TGI is over 10 µM.

As to `Cn1cc(C2=C(c3cn(C)c4ccc(N)cc34)C(=O)NC2=O)c2ccccc21`, the GI50 is 4.52 µM and the TGI is over 25 µM.

`S=C(N/N=C/c1cc(Cl)cc(Cl)c1)NC12CC3CC(CC(C3)C1)C2`: the GI50 is over 56.6 µM and the TGI was over 100 µM.

Compound `COc1cc(-c2oc3ccccc3c(=O)c2O)cc(OC)c1OC` displayed a TGI of over 100 µM.

On to `C[C@]12CC[C@@H]3c4ccc(O)c([N+](=O)[O-])c4CC[C@H]3[C@@H]1CC[C@@H]2NS(=O)(=O)c1ccc(C(F)(F)F)cc1`, for which the GI50 was 1.71 µM and the TGI came to 3.58 µM.

Regarding `N#Cc1ccc(-c2nc(C#N)c(N)o2)cc1`, the TGI is over 10 µM.

The next test concerns NCI-H226 lung. Nature of the test: growth of human tumour cells (NCI), 48 h.
The compound `CC(C)=CCC12Cc3ccc(O)cc3C(C(C)CN1)C2C` (stereo not given) showed a TGI of over 100 µM.

As for `CC(=O)c1cccc(N(/C=C/C(=O)C(F)(F)F)CC(=O)c2ccc(Cl)cc2)c1`, the GI50 is over 100 µM and the TGI was over 100 µM.

`COc1ccc(Cl)cc1Nc1nc(C(F)(F)F)ccc1C(=O)NN`: the GI50 was 3.62 µM and the TGI is over 100 µM.

Take `C#C[C@]1(O)CC[C@H]2[C@@H]3CC=C4c5nc(Nc6ccccn6)sc5CC[C@]4(C)[C@H]3CC[C@@]21C`: the GI50 was 1.51 µM and the TGI is 3.91 µM.

Compound `CCN(CC)c1ccc(NC(=S)NN(C)C)cc1` returned a TGI of over 10 µM.

As to `Nc1cc(N)c2nc(-c3ccccc3)c(Oc3ccc(F)cc3)nc2c1`, the GI50 was 20.3 µM and the TGI came to 49.1 µM.

`CC1(C)N=C(N)N=C(N)N1c1ccc(CCc2ccccc2)c(Cl)c1`: the GI50 is 0.521 µM and the TGI turned out to be 17.1 µM.

Turning to `Cn1cc(C2=C(c3cn(C)c4ccc(N)cc34)C(=O)NC2=O)c2ccccc21`, the GI50 is over 17.6 µM and the TGI was over 25 µM.

Turning to `S=C(N/N=C/c1cc(Cl)cc(Cl)c1)NC12CC3CC(CC(C3)C1)C2`, the GI50 was over 29.9 µM and the TGI was over 100 µM.

For the compound `C[C@]12CC[C@@H]3c4ccc(O)c([N+](=O)[O-])c4CC[C@H]3[C@@H]1CC[C@@H]2NS(=O)(=O)c1ccc(C(F)(F)F)cc1`, the GI50 was 1.62 µM and the TGI stood at 3.78 µM.

Consider `N#Cc1ccc(-c2nc(C#N)c(N)o2)cc1`, for which the TGI is over 10 µM.

The test system of a further test is OVCAR-5 ovarian. Nature of the test: growth of human tumour cells (NCI), 48 h.
In turn, `CC(C)=CCC12Cc3ccc(O)cc3C(C(C)CN1)C2C` (stereo not given) came in with a TGI of over 100 µM.

For `CC(=O)c1cccc(N(/C=C/C(=O)C(F)(F)F)CC(=O)c2ccc(Cl)cc2)c1`, the GI50 was over 100 µM and the TGI is over 100 µM.

In the case of `COc1ccc(Cl)cc1Nc1nc(C(F)(F)F)ccc1C(=O)NN`, the GI50 was 3.81 µM and the TGI is over 100 µM.

For the compound `C#C[C@]1(O)CC[C@H]2[C@@H]3CC=C4c5nc(Nc6ccccn6)sc5CC[C@]4(C)[C@H]3CC[C@@]21C`, the GI50 was 1.65 µM and the TGI was found to be 4.44 µM.

With `Nc1cc(N)c2nc(-c3ccccc3)c(Oc3ccc(F)cc3)nc2c1`, the GI50 was 20.6 µM and the TGI worked out at 47.6 µM.

On to `CC(O)CNC1=CC(=O)C(=O)c2ccccc21` (stereo not given), for which the TGI came to 35.6 µM.

`CC1(C)N=C(N)N=C(N)N1c1ccc(CCc2ccccc2)c(Cl)c1`: the GI50 is 0.19 µM and the TGI stood at 19.7 µM.

In turn, `CC1=C(C(=O)NC2CCCCC2)CC(C(=O)NC2CCCCC2)=C(C)N1` had a TGI of over 100 µM.

For the compound `Cn1cc(C2=C(c3cn(C)c4ccc(N)cc34)C(=O)NC2=O)c2ccccc21`, the GI50 is over 25 µM and the TGI was over 25 µM.

With `S=C(N/N=C/c1cc(Cl)cc(Cl)c1)NC12CC3CC(CC(C3)C1)C2`, the GI50 was 13.6 µM and the TGI was over 100 µM.

As to `COc1cc(-c2oc3ccccc3c(=O)c2O)cc(OC)c1OC`, the TGI was over 100 µM.

As for `C[C@]12CC[C@@H]3c4ccc(O)c([N+](=O)[O-])c4CC[C@H]3[C@@H]1CC[C@@H]2NS(=O)(=O)c1ccc(C(F)(F)F)cc1`, the GI50 was 1.81 µM and the TGI is 3.72 µM.

The next test has as its system MDA-MB-435. Description: growth of human tumour cells (NCI), 48 h.
Take `CC(C)=CCC12Cc3ccc(O)cc3C(C(C)CN1)C2C` (stereo not given): the TGI was over 100 µM.

For the compound `CC(=O)c1cccc(N(/C=C/C(=O)C(F)(F)F)CC(=O)c2ccc(Cl)cc2)c1`, the GI50 is over 100 µM and the TGI was over 100 µM.

On to `COc1ccc(Cl)cc1Nc1nc(C(F)(F)F)ccc1C(=O)NN`, for which the GI50 was 9.08 µM and the TGI is over 100 µM.

For the compound `C#C[C@]1(O)CC[C@H]2[C@@H]3CC=C4c5nc(Nc6ccccn6)sc5CC[C@]4(C)[C@H]3CC[C@@]21C`, the GI50 was 1.55 µM and the TGI amounted to 4.45 µM.

For the compound `CCN(CC)c1ccc(NC(=S)NN(C)C)cc1`, the TGI was over 10 µM.

`Nc1cc(N)c2nc(-c3ccccc3)c(Oc3ccc(F)cc3)nc2c1`: the GI50 was 15.8 µM and the TGI is 32.6 µM.

Compound `CC(O)CNC1=CC(=O)C(=O)c2ccccc21` (stereo not given) returned a TGI of 23.9 µM.

As to `CC1(C)N=C(N)N=C(N)N1c1ccc(CCc2ccccc2)c(Cl)c1`, the GI50 is 0.0528 µM and the TGI was 15.7 µM.

Take `CC1=C(C(=O)NC2CCCCC2)CC(C(=O)NC2CCCCC2)=C(C)N1`: the TGI is over 100 µM.

With `Cc1ccc(C(=O)Cc2nc3c([nH]c2=O)c(C)nn3-c2ccccc2)c(C)c1`, the TGI was over 10 µM.

Take `Cn1cc(C2=C(c3cn(C)c4ccc(N)cc34)C(=O)NC2=O)c2ccccc21`: the GI50 was 0.729 µM and the TGI was over 25 µM.

Take `S=C(N/N=C/c1cc(Cl)cc(Cl)c1)NC12CC3CC(CC(C3)C1)C2`: the GI50 is over 27.6 µM and the TGI was over 100 µM.

The compound `COc1cc(-c2oc3ccccc3c(=O)c2O)cc(OC)c1OC` registered a TGI of over 100 µM.

Regarding `C[C@]12CC[C@@H]3c4ccc(O)c([N+](=O)[O-])c4CC[C@H]3[C@@H]1CC[C@@H]2NS(=O)(=O)c1ccc(C(F)(F)F)cc1`, the GI50 is 1.74 µM and the TGI was found to be 3.63 µM.

Compound `N#Cc1ccc(-c2nc(C#N)c(N)o2)cc1` had a TGI of over 10 µM.

The subject of another test is SNB-19 CNS. Nature of the test: growth of human tumour cells (NCI), 48 h.
On to `CC(C)=CCC12Cc3ccc(O)cc3C(C(C)CN1)C2C` (stereo not given), for which the TGI is over 100 µM.

Take `COc1ccc(Cl)cc1Nc1nc(C(F)(F)F)ccc1C(=O)NN`: the GI50 was 8.93 µM and the TGI is over 100 µM.

Turning to `C#C[C@]1(O)CC[C@H]2[C@@H]3CC=C4c5nc(Nc6ccccn6)sc5CC[C@]4(C)[C@H]3CC[C@@]21C`, the GI50 is 1.37 µM and the TGI was 5.59 µM.

The compound `CCN(CC)c1ccc(NC(=S)NN(C)C)cc1` yielded a TGI of over 10 µM.

Consider `Nc1cc(N)c2nc(-c3ccccc3)c(Oc3ccc(F)cc3)nc2c1`, for which the GI50 is 17.3 µM and the TGI came to 33.8 µM.

On to `CC(O)CNC1=CC(=O)C(=O)c2ccccc21` (stereo not given), for which the TGI is 32 µM.

Turning to `CC1(C)N=C(N)N=C(N)N1c1ccc(CCc2ccccc2)c(Cl)c1`, the GI50 is 0.172 µM and the TGI turned out to be 15.4 µM.

In turn, `CC1=C(C(=O)NC2CCCCC2)CC(C(=O)NC2CCCCC2)=C(C)N1` gave a TGI of over 100 µM.

`Cc1ccc(C(=O)Cc2nc3c([nH]c2=O)c(C)nn3-c2ccccc2)c(C)c1` came in with a TGI of over 10 µM.

On to `Cn1cc(C2=C(c3cn(C)c4ccc(N)cc34)C(=O)NC2=O)c2ccccc21`, for which the GI50 was over 25 µM and the TGI was over 25 µM.

Regarding `S=C(N/N=C/c1cc(Cl)cc(Cl)c1)NC12CC3CC(CC(C3)C1)C2`, the GI50 is 5.99 µM and the TGI was over 100 µM.

`COc1cc(-c2oc3ccccc3c(=O)c2O)cc(OC)c1OC` registered a TGI of over 100 µM.

As to `C[C@]12CC[C@@H]3c4ccc(O)c([N+](=O)[O-])c4CC[C@H]3[C@@H]1CC[C@@H]2NS(=O)(=O)c1ccc(C(F)(F)F)cc1`, the GI50 was 2.79 µM and the TGI amounted to 11.2 µM.

For the compound `N#Cc1ccc(-c2nc(C#N)c(N)o2)cc1`, the TGI is over 10 µM.
